Experimental data as given in the kinase profiling compilation of Christmann-Franck et al. (2016).
“And” between values parts separate entries of the source, which are not always exact repeats. Identical values can stand only once.

What was measured:
Assay in all cases: KINOMEscan competition binding
Conditions in all cases: compound 0.1 µM
HIPK2 (human) = HIPK2 (human) (UniProt Q9H2X6)
STK32A (human) = STK32A (human) (UniProt Q8WU08)
STK38 (human) = STK38 (human) (UniProt Q15208)
CDKL1 (human) = CDKL1 (human) (UniProt Q00532)
AURKB (human) = AURKB (human) (UniProt Q96GD4)
MKNK1 (human) = MKNK1 (human) (UniProt Q9BUB5)
MAPK9 (human) = MAPK9 (human) (UniProt P45984)
TLK2 (human) = TLK2 (human) (UniProt Q86UE8)
GSG2 (human) = GSG2 (human) (UniProt Q8TF76)
NEK11 (human) = NEK11 (human) (UniProt Q8NG66)
STK3 (human) = STK3 (human) (UniProt Q13188)
CDK9 (human) = CDK9 (human) (UniProt P50750)
MTOR (human) = MTOR (human) (UniProt P42345)
MYLK4 (human) = MYLK4 (human) (UniProt Q86YV6)
CAMKK2 (human) = CAMKK2 (human) (UniProt Q96RR4)
RPS6KA2 KD1 (human) = RPS6KA2 KD1 (human) (UniProt Q15349)
ROCK1 (human) = ROCK1 (human) (UniProt Q13464)
TAOK1 (human) = TAOK1 (human) (UniProt Q7L7X3)
CLK1 (human) = CLK1 (human) (UniProt P49759)
MYO3A (human) = MYO3A (human) (UniProt Q8NEV4)
SRMS (human) = SRMS (human) (UniProt Q9H3Y6)
PRKAA1 (human) = PRKAA1 (human) (UniProt Q13131)
Sequence of PRKAA1 (human) (Q13131 whole entry, looked up): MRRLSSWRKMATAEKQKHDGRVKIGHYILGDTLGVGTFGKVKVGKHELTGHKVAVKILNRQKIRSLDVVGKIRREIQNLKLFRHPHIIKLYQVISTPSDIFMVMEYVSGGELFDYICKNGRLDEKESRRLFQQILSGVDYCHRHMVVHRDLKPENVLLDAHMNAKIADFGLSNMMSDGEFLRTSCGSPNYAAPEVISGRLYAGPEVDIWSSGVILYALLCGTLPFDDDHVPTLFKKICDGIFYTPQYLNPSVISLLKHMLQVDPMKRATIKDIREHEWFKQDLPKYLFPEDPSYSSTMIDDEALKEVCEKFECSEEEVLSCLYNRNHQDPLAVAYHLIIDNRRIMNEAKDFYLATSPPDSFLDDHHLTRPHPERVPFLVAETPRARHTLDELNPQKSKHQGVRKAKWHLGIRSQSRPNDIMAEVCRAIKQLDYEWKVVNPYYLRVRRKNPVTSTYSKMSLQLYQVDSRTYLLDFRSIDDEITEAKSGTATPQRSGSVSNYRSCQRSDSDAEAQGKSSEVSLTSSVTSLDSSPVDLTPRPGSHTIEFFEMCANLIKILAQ

TBK1 (human) = TBK1 (human) (UniProt Q9UHD2)
Sequence of TBK1 (human) (Q9UHD2 whole entry, looked up): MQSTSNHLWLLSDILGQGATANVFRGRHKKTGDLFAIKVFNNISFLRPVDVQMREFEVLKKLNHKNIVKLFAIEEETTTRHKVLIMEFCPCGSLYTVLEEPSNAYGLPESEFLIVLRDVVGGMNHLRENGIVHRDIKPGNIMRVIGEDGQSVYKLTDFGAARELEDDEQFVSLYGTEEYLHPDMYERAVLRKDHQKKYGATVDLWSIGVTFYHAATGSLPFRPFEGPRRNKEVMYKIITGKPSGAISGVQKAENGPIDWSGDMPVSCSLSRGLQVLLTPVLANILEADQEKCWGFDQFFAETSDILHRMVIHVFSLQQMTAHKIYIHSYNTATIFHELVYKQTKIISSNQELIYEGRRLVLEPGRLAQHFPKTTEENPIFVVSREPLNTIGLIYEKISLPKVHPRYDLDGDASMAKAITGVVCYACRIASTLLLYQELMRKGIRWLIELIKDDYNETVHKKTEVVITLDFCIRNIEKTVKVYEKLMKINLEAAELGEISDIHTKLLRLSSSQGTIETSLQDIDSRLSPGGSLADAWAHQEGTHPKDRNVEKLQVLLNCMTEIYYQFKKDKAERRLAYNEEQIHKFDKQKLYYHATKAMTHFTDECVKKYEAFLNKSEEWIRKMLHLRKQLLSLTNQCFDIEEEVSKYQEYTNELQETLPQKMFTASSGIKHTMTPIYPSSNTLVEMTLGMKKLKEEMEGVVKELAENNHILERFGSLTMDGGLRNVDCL

[1] = system: FLT3 (human), P36888 [N841I]
CAMKK1 (human) = CAMKK1 (human) (UniProt Q8N5S9)
PIK3CD (human) = PIK3CD (human) (UniProt O00329)
CDC2L2 (human) = CDC2L2 (human) (UniProt Q9UQ88)
LIMK1 (human) = LIMK1 (human) (UniProt P53667)
[2] = target: TYK2 JH1 catalytic (human) (UniProt P29597)
Sequence of TYK2 JH1 catalytic (human) (P29597 whole entry, looked up): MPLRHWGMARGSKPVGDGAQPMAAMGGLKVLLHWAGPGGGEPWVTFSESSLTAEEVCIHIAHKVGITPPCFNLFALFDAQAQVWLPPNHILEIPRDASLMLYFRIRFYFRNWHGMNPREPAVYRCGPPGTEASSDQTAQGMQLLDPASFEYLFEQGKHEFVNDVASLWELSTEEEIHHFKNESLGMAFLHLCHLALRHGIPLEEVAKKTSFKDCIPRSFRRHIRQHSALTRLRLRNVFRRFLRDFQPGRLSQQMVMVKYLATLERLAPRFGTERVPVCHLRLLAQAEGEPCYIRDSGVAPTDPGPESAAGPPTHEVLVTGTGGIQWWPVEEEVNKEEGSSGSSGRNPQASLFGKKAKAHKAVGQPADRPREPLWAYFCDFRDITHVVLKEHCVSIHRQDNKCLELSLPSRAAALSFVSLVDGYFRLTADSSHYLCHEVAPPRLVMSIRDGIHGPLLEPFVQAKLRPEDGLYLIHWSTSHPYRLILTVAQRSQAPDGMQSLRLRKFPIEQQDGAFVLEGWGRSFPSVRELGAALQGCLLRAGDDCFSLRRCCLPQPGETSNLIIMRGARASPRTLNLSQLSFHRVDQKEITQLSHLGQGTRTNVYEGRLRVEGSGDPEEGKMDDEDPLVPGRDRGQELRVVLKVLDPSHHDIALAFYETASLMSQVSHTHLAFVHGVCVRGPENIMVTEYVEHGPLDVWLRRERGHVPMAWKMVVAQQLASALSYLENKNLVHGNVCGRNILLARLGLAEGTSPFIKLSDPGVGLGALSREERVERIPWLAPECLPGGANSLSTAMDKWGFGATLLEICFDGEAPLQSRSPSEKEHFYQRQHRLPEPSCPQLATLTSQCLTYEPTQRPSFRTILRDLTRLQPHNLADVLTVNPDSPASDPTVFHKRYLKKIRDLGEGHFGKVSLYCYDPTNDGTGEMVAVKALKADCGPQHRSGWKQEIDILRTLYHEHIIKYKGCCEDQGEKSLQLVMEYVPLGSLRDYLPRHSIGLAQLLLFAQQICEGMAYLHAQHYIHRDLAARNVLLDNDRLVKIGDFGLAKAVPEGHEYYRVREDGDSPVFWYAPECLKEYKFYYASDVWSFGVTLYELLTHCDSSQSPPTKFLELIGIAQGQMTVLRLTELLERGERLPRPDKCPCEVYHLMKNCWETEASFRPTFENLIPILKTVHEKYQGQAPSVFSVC

EGFR (human) = EGFR (human) (UniProt P00533)
YES1 (human) = YES1 (human) (UniProt P07947)
[3] = system: ABL1 (human), P00519 [E255K]
PAK4 (human) = PAK4 (human) (UniProt O96013)
Sequence of PAK4 (human) (O96013 whole entry, looked up): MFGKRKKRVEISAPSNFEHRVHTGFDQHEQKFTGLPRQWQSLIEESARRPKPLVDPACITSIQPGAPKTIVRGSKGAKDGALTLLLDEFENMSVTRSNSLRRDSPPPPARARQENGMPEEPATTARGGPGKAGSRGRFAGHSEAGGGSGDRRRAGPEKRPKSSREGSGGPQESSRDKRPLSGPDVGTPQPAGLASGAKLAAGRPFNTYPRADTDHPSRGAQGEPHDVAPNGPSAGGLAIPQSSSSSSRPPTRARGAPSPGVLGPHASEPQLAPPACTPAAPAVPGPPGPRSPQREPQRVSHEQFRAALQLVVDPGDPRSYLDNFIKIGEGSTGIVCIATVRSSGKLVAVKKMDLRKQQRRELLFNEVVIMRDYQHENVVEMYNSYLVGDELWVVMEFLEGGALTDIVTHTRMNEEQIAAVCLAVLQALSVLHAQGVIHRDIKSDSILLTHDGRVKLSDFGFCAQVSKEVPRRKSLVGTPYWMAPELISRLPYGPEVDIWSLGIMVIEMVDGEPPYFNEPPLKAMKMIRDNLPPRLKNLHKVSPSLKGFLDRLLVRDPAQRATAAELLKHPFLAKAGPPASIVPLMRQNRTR

FLT3 (human) = FLT3 (human) (UniProt P36888)
GAK (human) = GAK (human) (UniProt O14976)
Sequence of GAK (human) (O14976 whole entry, looked up): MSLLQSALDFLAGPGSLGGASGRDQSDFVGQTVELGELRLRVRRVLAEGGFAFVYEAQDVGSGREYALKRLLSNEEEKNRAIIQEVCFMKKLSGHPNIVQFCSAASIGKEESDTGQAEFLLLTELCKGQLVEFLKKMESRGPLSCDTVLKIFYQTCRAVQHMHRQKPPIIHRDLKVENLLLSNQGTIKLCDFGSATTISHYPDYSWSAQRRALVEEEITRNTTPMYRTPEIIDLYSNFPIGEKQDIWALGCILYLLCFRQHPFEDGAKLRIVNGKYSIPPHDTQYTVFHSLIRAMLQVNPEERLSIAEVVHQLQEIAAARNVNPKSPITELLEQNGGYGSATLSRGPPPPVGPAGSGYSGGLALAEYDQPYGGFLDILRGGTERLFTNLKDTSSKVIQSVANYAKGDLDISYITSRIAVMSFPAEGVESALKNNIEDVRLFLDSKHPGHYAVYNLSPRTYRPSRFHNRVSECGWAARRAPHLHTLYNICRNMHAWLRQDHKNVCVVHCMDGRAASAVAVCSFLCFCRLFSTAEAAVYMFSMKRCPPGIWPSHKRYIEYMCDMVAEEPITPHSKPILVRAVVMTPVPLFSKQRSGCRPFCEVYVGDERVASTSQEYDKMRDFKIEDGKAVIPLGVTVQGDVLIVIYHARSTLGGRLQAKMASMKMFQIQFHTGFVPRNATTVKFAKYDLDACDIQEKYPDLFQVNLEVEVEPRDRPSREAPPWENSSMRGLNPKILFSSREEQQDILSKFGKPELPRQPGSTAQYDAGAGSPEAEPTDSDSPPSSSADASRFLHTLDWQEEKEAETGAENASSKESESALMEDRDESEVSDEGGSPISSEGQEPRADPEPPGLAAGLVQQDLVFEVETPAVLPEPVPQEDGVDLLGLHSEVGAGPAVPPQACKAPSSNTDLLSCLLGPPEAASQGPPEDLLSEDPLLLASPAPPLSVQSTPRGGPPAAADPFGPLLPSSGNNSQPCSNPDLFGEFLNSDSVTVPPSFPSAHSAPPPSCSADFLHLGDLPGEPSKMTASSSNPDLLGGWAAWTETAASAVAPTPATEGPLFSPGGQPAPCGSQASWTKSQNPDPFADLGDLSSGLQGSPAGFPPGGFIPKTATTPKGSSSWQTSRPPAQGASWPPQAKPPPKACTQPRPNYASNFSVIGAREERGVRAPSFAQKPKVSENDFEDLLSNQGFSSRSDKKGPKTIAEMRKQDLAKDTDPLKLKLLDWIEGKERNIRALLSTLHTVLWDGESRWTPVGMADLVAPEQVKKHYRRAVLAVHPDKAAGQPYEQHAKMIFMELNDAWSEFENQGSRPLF

WEE1 (human) = WEE1 (human) (UniProt P30291)
AKT3 (human) = AKT3 (human) (UniProt Q9Y243)
CDK18 (human) = CDK18 (human) (UniProt Q07002)
Sequence of CDK18 (human) (Q07002 whole entry, looked up): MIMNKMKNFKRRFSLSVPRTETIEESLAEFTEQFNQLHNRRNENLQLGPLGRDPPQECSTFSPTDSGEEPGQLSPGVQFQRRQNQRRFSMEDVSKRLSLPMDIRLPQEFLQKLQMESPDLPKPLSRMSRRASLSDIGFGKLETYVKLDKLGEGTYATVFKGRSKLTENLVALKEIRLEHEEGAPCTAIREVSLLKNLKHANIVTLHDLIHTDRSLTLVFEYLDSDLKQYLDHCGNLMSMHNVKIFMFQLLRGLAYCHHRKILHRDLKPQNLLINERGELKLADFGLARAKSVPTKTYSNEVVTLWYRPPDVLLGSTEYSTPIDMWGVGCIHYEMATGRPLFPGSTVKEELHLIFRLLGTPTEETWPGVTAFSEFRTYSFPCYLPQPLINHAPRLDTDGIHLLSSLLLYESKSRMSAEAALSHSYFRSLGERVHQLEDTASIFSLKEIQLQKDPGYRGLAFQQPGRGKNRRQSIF

PRKD1 (human) = PRKD1 (human) (UniProt Q15139)
[4] = system: EGFR (human), P00533 [T790M/L858R]

Q: For CCc1ccc(C(=O)Nc2cc(CN3CCN(C)CC3)cc(C(F)(F)F)c2)cc1C#Cc1cnc2ccnn2c1, which kinase still bound, per cent of control (HIPK2 (human)) is on record?
A: The kinase still bound, per cent of control was 100%.

Q: What about the kinase still bound, per cent of control (STK32A (human)) of the same molecule?
A: The kinase still bound, per cent of control was 69%.

Q: What about the kinase still bound, per cent of control (STK38 (human)) of the same molecule?
A: Its kinase still bound, per cent of control is 93%.

Q: And the kinase still bound, per cent of control (CDKL1 (human))?
A: Its kinase still bound, per cent of control is 100%.

Q: What about the kinase still bound, per cent of control (AURKB (human)) of the same molecule?
A: The kinase still bound, per cent of control was 100%.

Q: And the kinase still bound, per cent of control (MKNK1 (human))?
A: Its kinase still bound, per cent of control is 91%.

Q: What about the kinase still bound, per cent of control (MAPK9 (human)) of the same molecule?
A: The kinase still bound, per cent of control was 100%.

Q: And the kinase still bound, per cent of control (TLK2 (human))?
A: The kinase still bound, per cent of control was 100%.

Q: What about the kinase still bound, per cent of control (GSG2 (human)) of the same molecule?
A: The kinase still bound, per cent of control was 75%.

Q: And the kinase still bound, per cent of control (NEK11 (human))?
A: Its kinase still bound, per cent of control is 91%.

Q: And the kinase still bound, per cent of control (STK3 (human))?
A: Its kinase still bound, per cent of control is 100%.

Q: And the kinase still bound, per cent of control (CDK9 (human))?
A: Its kinase still bound, per cent of control is 98%.

Q: And the kinase still bound, per cent of control (MTOR (human))?
A: The kinase still bound, per cent of control was 100%.

Q: And the kinase still bound, per cent of control (MYLK4 (human))?
A: The kinase still bound, per cent of control was 93%.

Q: What about the kinase still bound, per cent of control (CAMKK2 (human)) of the same molecule?
A: Its kinase still bound, per cent of control is 73%.

Q: And the kinase still bound, per cent of control (RPS6KA2 KD1 (human))?
A: The kinase still bound, per cent of control was 78%.

Q: And the kinase still bound, per cent of control (ROCK1 (human))?
A: Its kinase still bound, per cent of control is 83%.

Q: And the kinase still bound, per cent of control (TAOK1 (human))?
A: Its kinase still bound, per cent of control is 100%.

Q: What about the kinase still bound, per cent of control (CLK1 (human)) of the same molecule?
A: The kinase still bound, per cent of control was 71%.

Q: What about the kinase still bound, per cent of control (MYO3A (human)) of the same molecule?
A: The kinase still bound, per cent of control was 100%.

Q: And the kinase still bound, per cent of control (SRMS (human))?
A: Its kinase still bound, per cent of control is 99%.

Q: What about the kinase still bound, per cent of control (PRKAA1 (human)) of the same molecule?
A: Its kinase still bound, per cent of control is 83%.

Q: And the kinase still bound, per cent of control (TBK1 (human))?
A: The kinase still bound, per cent of control was 100%.

Q: And the kinase still bound, per cent of control [1]?
A: Its kinase still bound, per cent of control is 100%.

Q: What about the kinase still bound, per cent of control (CAMKK1 (human)) of the same molecule?
A: Its kinase still bound, per cent of control is 69%.

Q: And the kinase still bound, per cent of control (PIK3CD (human))?
A: The kinase still bound, per cent of control was 74%.

Q: And the kinase still bound, per cent of control (CDC2L2 (human))?
A: Its kinase still bound, per cent of control is 100%.

Q: And the kinase still bound, per cent of control (LIMK1 (human))?
A: Its kinase still bound, per cent of control is 85%.

Q: And the kinase still bound, per cent of control [2]?
A: Its kinase still bound, per cent of control is 100%.

Q: What about the kinase still bound, per cent of control (EGFR (human)) of the same molecule?
A: Its kinase still bound, per cent of control is 100%.

Q: And the kinase still bound, per cent of control (YES1 (human))?
A: Its kinase still bound, per cent of control is 70%.

Q: And the kinase still bound, per cent of control [3]?
A: The kinase still bound, per cent of control was 100%.

Q: And the kinase still bound, per cent of control (PAK4 (human))?
A: Its kinase still bound, per cent of control is 80%.

Q: And the kinase still bound, per cent of control (FLT3 (human))?
A: Its kinase still bound, per cent of control is 78% and 100%.

Q: And the kinase still bound, per cent of control (GAK (human))?
A: Its kinase still bound, per cent of control is 95%.

Q: What about the kinase still bound, per cent of control (WEE1 (human)) of the same molecule?
A: Its kinase still bound, per cent of control is 100%.

Q: What about the kinase still bound, per cent of control (AKT3 (human)) of the same molecule?
A: Its kinase still bound, per cent of control is 100%.

Q: What about the kinase still bound, per cent of control (CDK18 (human)) of the same molecule?
A: Its kinase still bound, per cent of control is 100%.

Q: What about the kinase still bound, per cent of control (PRKD1 (human)) of the same molecule?
A: Its kinase still bound, per cent of control is 100%.

Q: What about the kinase still bound, per cent of control [4] of the same molecule?
A: Its kinase still bound, per cent of control is 48%.
